Laboratory results published in the supplement of paper PMC10307832.

What was measured:
Assay in all cases: relative viability (nuclei count vs DMSO), 5 days (fraction); higher = more cells survive
[1] = compound: C1CC(C2=C(C1)C3=C(N2)C=CC(=C3)Cl)C(=O)N [Selisistat] + COc1cc2c(Oc3ccc(NC(=O)C4(C(=O)Nc5ccc(F)cc5)CC4)cc3F)ccnc2cc1OCCCN1CCOCC1 [Foretinib] (partner 0.25 µM)
Outline: (§1)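 Lung cancer cell lines, seeded in 1536-well plates, were treated the following day by pin tool with a single drug or with five library-drug doses (not always all listed) in √10 steps on top of a fixed anchor-drug dose. Cells were fixed and nuclei stained in one step after 5 days, and nuclei were counted. Relative viability is the nuclei count for treated wells divided by that for vehicle wells, reported as medians of duplicate plates.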

[2] = compound: C1CC(C2=C(C1)C3=C(N2)C=CC(=C3)Cl)C(=O)N [Selisistat] + Nc1ncn([C@H]2C[C@H](O)[C@@H](CO)O2)c(=O)n1 [Decitabine] (partner 2 µM)
Outline: as §1

[3] = compound: c1ccc2c(CCNc3ccc(Nc4ccncc4)cc3)c[nH]c2c1 [Serdemetan] + CC1(C)CCC(c2ccc(Cl)cc2)=C(CN2CCN(c3ccc(C(=O)NS(=O)(=O)c4ccc(N[C@H](CCN5CCOCC5)CSc5ccccc5)c(S(=O)(=O)C(F)(F)F)c4)cc3)CC2)C1 [Navitoclax] (partner 0.5 µM)
Outline: as §1

[4] = compound: c1ccc2c(CCNc3ccc(Nc4ccncc4)cc3)c[nH]c2c1 [Serdemetan] + Nc1ncn([C@H]2C[C@H](O)[C@@H](CO)O2)c(=O)n1 [Decitabine] (partner 2 µM)
Outline: as §1

NCI-H727
relative viability ([1]; first compound 0.4 µM): 0.883 | relative viability ([1]; first compound 1.265 µM): 1.05 | relative viability ([1]; first compound 12.65 µM): 1.04 | relative viability ([1]; first compound 40 µM): 0.872 | relative viability ([2]; first compound 0.4 µM): 0.851 | relative viability ([2]; first compound 1.265 µM): 0.891 | relative viability ([2]; first compound 4 µM): 0.446 | relative viability ([2]; first compound 12.65 µM): 0.898 | relative viability ([2]; first compound 40 µM): 0.818 | relative viability ([3]; first compound 0.04 µM): 0.511 | relative viability ([3]; first compound 0.1265 µM): 0.354 | relative viability ([3]; first compound 0.4 µM): 0.391 | relative viability ([3]; first compound 1.265 µM): 0.231 | relative viability ([3]; first compound 4 µM): 0.226 | relative viability ([4]; first compound 0.04 µM): 0.849 | relative viability ([4]; first compound 0.1265 µM): 0.797 | relative viability ([4]; first compound 0.4 µM): 0.828 | relative viability ([4]; first compound 1.265 µM): 0.965 | relative viability ([4]; first compound 4 µM): 0.826

NCI-H838
relative viability ([1]; first compound 0.4 µM): 1.03 | relative viability ([1]; first compound 1.265 µM): 1.03 | relative viability ([1]; first compound 4 µM): 0.957 | relative viability ([1]; first compound 12.65 µM): 1.07 | relative viability ([1]; first compound 40 µM): 0.962 | relative viability ([2]; first compound 0.4 µM): 0.557 | relative viability ([2]; first compound 1.265 µM): 0.459 | relative viability ([2]; first compound 4 µM): 0.475 | relative viability ([2]; first compound 12.65 µM): 0.45 | relative viability ([2]; first compound 40 µM): 0.454 | relative viability ([3]; first compound 0.04 µM): 1.11 | relative viability ([3]; first compound 0.1265 µM): 1.14 | relative viability ([3]; first compound 0.4 µM): 1.08 | relative viability ([3]; first compound 1.265 µM): 1.12 | relative viability ([3]; first compound 4 µM): 1.32 | relative viability ([4]; first compound 0.04 µM): 0.437 | relative viability ([4]; first compound 0.1265 µM): 0.459 | relative viability ([4]; first compound 0.4 µM): 0.404 | relative viability ([4]; first compound 1.265 µM): 0.386 | relative viability ([4]; first compound 4 µM): 0.451

NCI-H1355
relative viability ([1]; first compound 0.4 µM): 0.933 | relative viability ([1]; first compound 1.265 µM): 0.991 | relative viability ([1]; first compound 4 µM): 0.955 | relative viability ([1]; first compound 12.65 µM): 0.99 | relative viability ([1]; first compound 40 µM): 0.993 | relative viability ([2]; first compound 0.4 µM): 0.336 | relative viability ([2]; first compound 1.265 µM): 0.383 | relative viability ([2]; first compound 4 µM): 0.345 | relative viability ([2]; first compound 12.65 µM): 0.338 | relative viability ([2]; first compound 40 µM): 0.388 | relative viability ([3]; first compound 0.04 µM): 1.01 | relative viability ([3]; first compound 0.1265 µM): 0.863 | relative viability ([3]; first compound 0.4 µM): 0.944 | relative viability ([3]; first compound 1.265 µM): 0.915 | relative viability ([3]; first compound 4 µM): 0.78 | relative viability ([4]; first compound 0.04 µM): 0.382 | relative viability ([4]; first compound 0.1265 µM): 0.34 | relative viability ([4]; first compound 0.4 µM): 0.306 | relative viability ([4]; first compound 1.265 µM): 0.288 | relative viability ([4]; first compound 4 µM): 0.31

NCI-H1395
relative viability ([1]; first compound 0.4 µM): 1.01 | relative viability ([1]; first compound 1.265 µM): 0.993 | relative viability ([1]; first compound 4 µM): 0.909 | relative viability ([1]; first compound 12.65 µM): 1.03 | relative viability ([1]; first compound 40 µM): 0.878 | relative viability ([2]; first compound 0.4 µM): 0.781 | relative viability ([2]; first compound 1.265 µM): 0.633 | relative viability ([2]; first compound 12.65 µM): 0.657 | relative viability ([2]; first compound 40 µM): 0.809 | relative viability ([3]; first compound 0.04 µM): 0.976 | relative viability ([3]; first compound 0.1265 µM): 1.07 | relative viability ([3]; first compound 0.4 µM): 1.08 | relative viability ([3]; first compound 1.265 µM): 0.923 | relative viability ([3]; first compound 4 µM): 0.815 | relative viability ([4]; first compound 0.04 µM): 0.772 | relative viability ([4]; first compound 0.1265 µM): 0.694 | relative viability ([4]; first compound 0.4 µM): 0.687 | relative viability ([4]; first compound 1.265 µM): 0.637 | relative viability ([4]; first compound 4 µM): 0.57

NCI-H1437
relative viability ([1]; first compound 0.4 µM): 1.29 | relative viability ([1]; first compound 1.265 µM): 1.21 | relative viability ([1]; first compound 4 µM): 1.33 | relative viability ([1]; first compound 12.65 µM): 1.06 | relative viability ([1]; first compound 40 µM): 1 | relative viability ([2]; first compound 0.4 µM): 0.61 | relative viability ([2]; first compound 1.265 µM): 0.597 | relative viability ([2]; first compound 4 µM): 0.528 | relative viability ([2]; first compound 12.65 µM): 0.503 | relative viability ([2]; first compound 40 µM): 0.543 | relative viability ([3]; first compound 0.04 µM): 1.06 | relative viability ([3]; first compound 0.1265 µM): 1.01 | relative viability ([3]; first compound 0.4 µM): 0.99 | relative viability ([3]; first compound 1.265 µM): 0.98 | relative viability ([3]; first compound 4 µM): 0.754 | relative viability ([4]; first compound 0.04 µM): 0.511 | relative viability ([4]; first compound 0.1265 µM): 0.5 | relative viability ([4]; first compound 0.4 µM): 0.582 | relative viability ([4]; first compound 1.265 µM): 0.492 | relative viability ([4]; first compound 4 µM): 0.427

NCI-H1650
relative viability ([1]; first compound 0.4 µM): 1.11 | relative viability ([1]; first compound 1.265 µM): 1.03 | relative viability ([1]; first compound 4 µM): 1.02 | relative viability ([1]; first compound 12.65 µM): 0.999 | relative viability ([1]; first compound 40 µM): 1.18 | relative viability ([2]; first compound 0.4 µM): 0.545 | relative viability ([2]; first compound 1.265 µM): 0.422 | relative viability ([2]; first compound 4 µM): 0.382 | relative viability ([2]; first compound 12.65 µM): 0.481 | relative viability ([2]; first compound 40 µM): 0.438 | relative viability ([3]; first compound 0.04 µM): 1.02 | relative viability ([3]; first compound 0.1265 µM): 1.19 | relative viability ([3]; first compound 0.4 µM): 1.19 | relative viability ([3]; first compound 1.265 µM): 1.18 | relative viability ([3]; first compound 4 µM): 0.722 | relative viability ([4]; first compound 0.04 µM): 0.408 | relative viability ([4]; first compound 0.1265 µM): 0.435 | relative viability ([4]; first compound 0.4 µM): 0.411 | relative viability ([4]; first compound 1.265 µM): 0.422 | relative viability ([4]; first compound 4 µM): 0.266

NCI-H1651
relative viability ([1]; first compound 0.4 µM): 0.785 | relative viability ([1]; first compound 1.265 µM): 0.693 | relative viability ([1]; first compound 4 µM): 0.864 | relative viability ([1]; first compound 12.65 µM): 0.897 | relative viability ([1]; first compound 40 µM): 0.739 | relative viability ([2]; first compound 0.4 µM): 0.673 | relative viability ([2]; first compound 1.265 µM): 0.699 | relative viability ([2]; first compound 4 µM): 0.484 | relative viability ([2]; first compound 12.65 µM): 0.58 | relative viability ([2]; first compound 40 µM): 0.624 | relative viability ([3]; first compound 0.04 µM): 0.826 | relative viability ([3]; first compound 0.1265 µM): 0.808 | relative viability ([3]; first compound 0.4 µM): 0.557 | relative viability ([3]; first compound 1.265 µM): 0.256 | relative viability ([3]; first compound 4 µM): 0.226 | relative viability ([4]; first compound 0.04 µM): 0.486 | relative viability ([4]; first compound 0.1265 µM): 0.414 | relative viability ([4]; first compound 0.4 µM): 0.497 | relative viability ([4]; first compound 1.265 µM): 0.275 | relative viability ([4]; first compound 4 µM): 0.289

NCI-H1666
relative viability ([1]; first compound 0.4 µM): 0.993 | relative viability ([1]; first compound 1.265 µM): 0.993 | relative viability ([1]; first compound 4 µM): 0.927 | relative viability ([1]; first compound 12.65 µM): 0.943 | relative viability ([1]; first compound 40 µM): 0.858 | relative viability ([2]; first compound 0.4 µM): 0.825 | relative viability ([2]; first compound 1.265 µM): 0.699 | relative viability ([2]; first compound 4 µM): 0.692 | relative viability ([2]; first compound 12.65 µM): 0.687 | relative viability ([2]; first compound 40 µM): 0.778 | relative viability ([3]; first compound 0.04 µM): 0.913 | relative viability ([3]; first compound 0.1265 µM): 0.941 | relative viability ([3]; first compound 0.4 µM): 0.877 | relative viability ([3]; first compound 1.265 µM): 0.726 | relative viability ([3]; first compound 4 µM): 0.83 | relative viability ([4]; first compound 0.04 µM): 0.798 | relative viability ([4]; first compound 0.1265 µM): 0.657 | relative viability ([4]; first compound 0.4 µM): 0.652 | relative viability ([4]; first compound 1.265 µM): 0.645 | relative viability ([4]; first compound 4 µM): 0.697
